From US20210007356A1, “IMIDE DERIVATIVE AND FUNGICIDE CONTAINING SAID DERIVATIVE AS ACTIVE INGREDIENT” (HOKKO CHEMICAL INDUSTRY CO., LTD., priority 2018, published 2021)
Read-outs that look alike come from different tables or passages of the source.

Experiments:
[1] = system: barley powdery mildew fungus (Erysiphe graminis); assay: Test Example 2: control effect against barley powdery mildew by foliage application; type: in vivo; conditions: wettable powder diluted to 100 ppm, 10 mL per pot foliage spray on barley; inoculated day after; 7 days after inoculation
[2] = system: rice blast fungus (Pyricularia grisea); type: in vivo; conditions: flowable 1,000 ppm, 1 mL dripped in paddy water, inoculated after 1 week, 7 days after inoculation
[3] = system: rice blast fungus (Pyricularia grisea); type: in vivo; conditions: flowable diluted to 100 ppm, 10 mL per pot foliage spray on paddy rice; inoculated day after; 7 days after inoculation
[4] = system: rice blast fungus (Pyricularia grisea); type: in vivo; conditions: 5 g of granule on nursery box, paddy rice; inoculated after 3 weeks; 7 days after inoculation
[5] = system: rice blast fungus (Pyricularia grisea); type: in vivo; conditions: flowable 5,000 ppm, 50 mL irrigation of nursery box, paddy rice; inoculated after 3 weeks; 7 days after inoculation
[6] = system: rice sheath blight fungus (Thanatephorus cucumeris); assay: Test Example 10: control effect against rice sheath blight by water surface application (flowable formulation); conditions: flowable 1,000 ppm, 1 mL dripped in paddy water, inoculated after 1 week, 7 days after inoculation
[7] = system: rice sheath blight fungus (Thanatephorus cucumeris); assay: Test Example 6: control effect against rice sheath blight by box treatment (flowable formulation); conditions: flowable 5,000 ppm, 50 mL irrigation of nursery box, paddy rice; inoculated after 3 weeks; 7 days after inoculation
[8] = system: rice sheath blight fungus (Thanatephorus cucumeris); assay: Test Example 8: control effect against rice sheath blight by box treatment (granule); conditions: 5 g of granule on nursery box, paddy rice; inoculated after 3 weeks; 7 days after inoculation

Row | Structure (SMILES) | evaluation value of control effect (from control value, lesion area percentage) [1] | evaluation value of control effect (from control value, number of lesions) [2] | evaluation value of control effect (from control value, number of lesions) [3] | evaluation value of control effect (from control value, number of lesions) [4] | evaluation value of control effect (from control value, number of lesions) [5] | evaluation value of control effect (from control value, lesion height) [6] | evaluation value of control effect (from control value, lesion height) [7] | evaluation value of control effect (from control value, lesion height) [8]
1 | CC(C)CC(C)c1ccccc1N(C(=O)c1cc(Cl)c(Cl)s1)C(=O)c1cccnc1C(F)F (stereo not shown) [13-50] | 4 | 5 | 4 | 5 | 5 |  |  | 
2 | Cc1nn(C)c(F)c1C(=O)N(C(=O)c1snc(Cl)c1Cl)c1ccccc1C(C)CC(C)C (stereo not shown) [1-131, 3,4-Dichloro-N-{2-(1,3-dimethylbutyl)phenyl}-N-(5-fluoro-1,3-dimethylpyrazole-4-carbonyl)isothiazole-5-carboxamide] | 4 |  | 4 |  |  | 5 | 5 | 5
3 | Cc1nc(C(F)F)c(C(=O)N(C(=O)c2c(C(F)F)nn(C)c2Cl)c2ccccc2C(C)CC(C)C)s1 (stereo not shown) [7-272] | 4 |  | 4 |  |  |  |  | 
4 | Cc1nn(C)c(Cl)c1C(=O)N(C(=O)c1scnc1C(F)(F)F)c1cccc2c1C(C)OC2(C)C (stereo not shown) [25-120] |  |  | 4 |  |  |  |  | 
5 | CC(C)CC(C)c1ccccc1N(C(=O)c1ccccc1C(F)F)C(=O)c1snc(Cl)c1Cl (stereo not shown) [19-2] | 4 | 5 | 4 | 5 | 5 |  |  | 
6 | Cc1nn(C)c(F)c1C(=O)N(C(=O)c1scnc1C(F)(F)F)c1ccccc1C(C)CC(C)C (stereo not shown) [1-336] | 4 |  | 4 |  |  |  |  | 
7 | CC(C)CC(C)c1ccccc1N(C(=O)c1snc(Cl)c1Cl)C(=O)c1c(C(F)F)nn(C)c1Cl (stereo not shown) [1-379] | 4 | 5 | 4 | 5 | 5 |  |  | 
8 | Cc1nc(C(F)F)c(C(=O)N(C(=O)c2cn(C)nc2C(F)F)c2cccc3c2C(C)CC3(C)C)s1 (stereo not shown) [25-97] | 4 |  | 4 |  |  | 5 | 5 | 5
9 | Cc1nn(C)c(Cl)c1C(=O)N(C(=O)c1scnc1C(F)F)c1cccc2c1C(C)OC2(C)C (stereo not shown) [25-119] |  |  | 4 |  |  |  |  | 
10 | Cc1nc(C(F)F)c(C(=O)N(C(=O)c2scnc2C(F)(F)F)c2cccc3c2C(C)OC3(C)C)s1 (stereo not shown) [26-82] |  |  | 4 |  |  | 5 | 5 | 5
11 | Cc1nc(C(F)F)c(C(=O)N(C(=O)c2cc(Cl)nc(Cl)c2)c2cccc3c2C(C)CC3(C)C)s1 (stereo not shown) [26-89] | 4 |  | 4 |  |  | 5 | 5 | 5
12 | Cn1cc(C(=O)N(C(=O)c2scnc2C(F)(F)F)c2ccccc2-c2cc(F)c(F)c(F)c2)c(C(F)F)n1 [1-371] |  |  | 4 |  |  |  |  | 
13 | CC(C)CC(C)c1ccccc1N(C(=O)c1cccnc1CF)C(=O)c1snc(Cl)c1Cl (stereo not shown) [13-56] | 4 | 5 | 4 | 5 | 5 |  |  | 
14 | Cc1nn(C)c(C)c1C(=O)N(C(=O)c1snc(Cl)c1Cl)c1ccccc1C(C)CC(C)C (stereo not shown) [1-377] | 4 | 5 | 4 | 5 | 5 |  |  | 
15 | CC1OC(C)(C)c2cccc(N(C(=O)c3ccccc3C(F)F)C(=O)c3snc(Cl)c3Cl)c21 (stereo not shown) [28-4] |  | 5 | 4 | 5 | 5 | 5 | 5 | 5
16 | Cc1nc(C(F)(F)F)c(C(=O)N(C(=O)c2c(C)nn(C)c2Cl)c2cccc3c2C(C)OC3(C)C)s1 (stereo not shown) [25-122] |  |  | 4 |  |  |  |  | 
17 | Cc1nnsc1C(=O)N(C(=O)c1cn(C)nc1C(F)(F)F)c1ccsc1C(C)CC(C)C (stereo not shown) [5-19] | 5 | 5 | 4 | 5 | 5 |  |  | 
18 | Cc1nc(C(F)(F)F)c(C(=O)N(C(=O)c2sc(C)nc2C(F)(F)F)c2c(Br)cc(OC(F)(F)F)cc2Br)s1 [7-286] | 4 |  | 4 |  |  | 5 | 5 | 5
19 | Cc1nc(C(F)(F)F)c(C(=O)N(C(=O)c2snc(Cl)c2Cl)c2c(Br)cc(OC(F)(F)F)cc2Br)s1 [7-279] | 4 |  | 4 |  |  | 5 | 5 | 5
20 | Cc1nc(C(F)F)c(C(=O)N(C(=O)c2snnc2C)c2cccc3c2C(C)CC3(C)C)s1 (stereo not shown) [26-49] | 4 | 5 | 4 | 5 | 5 |  |  | 
21 | CC(C)CC(C)c1ccccc1N(C(=O)c1cccnc1C(C)F)C(=O)c1snc(Cl)c1Cl (stereo not shown) [13-57] |  | 5 | 4 | 5 | 5 |  |  | 
22 | Cc1nn(C)c(F)c1C(=O)N(C(=O)c1scnc1C(F)F)c1ccccc1C(C)CC(C)C (stereo not shown) [1-346] | 4 | 5 | 4 | 5 | 5 |  |  | 
23 | Cc1nnsc1C(=O)N(C(=O)c1cn(C)nc1C(F)F)c1ccccc1-c1cc(F)c(F)c(F)c1 [1-368] | 4 |  | 4 |  |  | 5 | 5 | 5
24 | Cc1nc(C(F)F)c(C(=O)N(C(=O)c2sc(C)nc2C(F)(F)F)c2cccc3c2C(C)CC3(C)C)s1 (stereo not shown) [26-73] | 4 |  | 4 |  |  | 5 | 5 | 5
25 | Cc1nc(C(F)F)c(C(=O)N(C(=O)c2snnc2C)c2ccccc2C(C)CC(C)C)s1 (stereo not shown) [7-152] | 5 | 5 |  | 5 | 5 | 5 | 5 | 5
26 | Cc1nn(C)c(Cl)c1C(=O)N(C(=O)c1snc(Cl)c1Cl)c1ccccc1C(C)CC(C)C (stereo not shown) [1-378] |  | 5 | 4 | 5 | 5 |  |  | 
